Assay results taken from patent US5773423A (priority 1994, dated 1998).
Structures can show the parent of a compound that is named as a salt. Where two headings read alike, the source gives them in different places.

How the values were obtained:
[1] = biological target: T1, A1 receptors from rat brain membranes (Rattus norvegicus, UniProt P25099); assay: biochemical; assay type: binding; conditions: for inhibition at 100 µM: read-out: A1 percent displacement
T1 construct: Rat cerebral cortical and striatal membranes were prepared; from tissue; host or cells: rat brain (cerebral cortical) membranes
T1 sequence (P25099 1-326): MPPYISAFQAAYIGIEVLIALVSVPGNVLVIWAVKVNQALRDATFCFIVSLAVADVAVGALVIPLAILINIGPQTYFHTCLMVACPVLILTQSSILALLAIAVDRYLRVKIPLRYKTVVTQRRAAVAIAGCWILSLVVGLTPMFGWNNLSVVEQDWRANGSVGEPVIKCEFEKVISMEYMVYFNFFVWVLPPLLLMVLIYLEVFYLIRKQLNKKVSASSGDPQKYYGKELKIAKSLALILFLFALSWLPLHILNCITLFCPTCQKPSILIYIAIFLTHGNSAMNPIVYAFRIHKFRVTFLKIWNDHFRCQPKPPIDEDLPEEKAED

[2] = biological target: T2, A2 receptors from rat striatal membranes (Rattus norvegicus, UniProt P30543); assay: Radioligand binding at A2 (A2a) receptors, displacement of [3H]CGS 21680 (or [3H]NECA with 50 nM CPA) from rat striatal membranes; conditions: for inhibition at 100 µM: read-out: A2 percent displacement
T2 construct: Rat cerebral cortical and striatal membranes were prepared; from tissue; host or cells: rat striatal membranes

[3] = rat brain membranes, displacement of [3H]PIA (or [3H]CHA), read-out: A1 affinity Ki
[4] = rat striatal membranes, displacement of [3H]CGS 21680 (or [3H]NECA + 50 nM CPA), read-out: A2 affinity Ki

T2 sequence (P30543 whole entry): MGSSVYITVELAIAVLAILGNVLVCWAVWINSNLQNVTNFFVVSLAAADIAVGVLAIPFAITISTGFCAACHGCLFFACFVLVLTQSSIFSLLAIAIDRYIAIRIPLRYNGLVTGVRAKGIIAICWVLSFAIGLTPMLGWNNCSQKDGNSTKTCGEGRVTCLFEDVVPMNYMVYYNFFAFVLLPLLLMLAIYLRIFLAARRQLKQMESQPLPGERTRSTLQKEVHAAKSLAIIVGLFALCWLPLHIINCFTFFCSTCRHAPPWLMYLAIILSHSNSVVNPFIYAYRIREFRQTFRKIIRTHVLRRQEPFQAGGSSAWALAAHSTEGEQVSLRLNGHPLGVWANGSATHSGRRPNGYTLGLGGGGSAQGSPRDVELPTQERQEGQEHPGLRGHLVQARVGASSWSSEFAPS

Ki [1, 3]	Ki [2, 4]	SMILES	further results
580 ± 99 nM	423 ± 46 nM	NC(=O)[C@H]1O[C@@H](n2cnc3c(NCc4ccccc4)ncnc32)[C@H](O)[C@@H]1O [Compound 39, N^6-benzyl-5'-carboxamidoadenosine]	–
898 ± 124 nM	597 ± 42 nM	CNC(=O)[C@H]1O[C@@H](n2cnc3c(NCc4ccccc4)ncnc32)[C@H](O)[C@@H]1O [Compound 40, N^6-benzyladenosine-5'-N-methyluronamide]	–
65 ± 2 nM	64 ± 9 nM	CNC(=O)[C@H]1O[C@@H](n2cnc3c(NCc4cccc(Br)c4)ncnc32)[C@H](O)[C@@H]1O [Compound 41, N^6-(3-bromobenzyl)-NMCA]	–
7370 nM	–	CNC(=O)[C@H]1O[C@@H](n2cnc3c(NCc4cccc(NC(C)=O)c4)ncnc32)[C@H](O)[C@@H]1O [Compound 45, N^6-(3-acetamidobenzyl)-NMCA]	inhibition at 100 µM [2]: 12.5 ± 1.9%
322 ± 23 nM	415 ± 33 nM	CNC(=O)[C@H]1O[C@@H](n2cnc3c(NCc4cccc(C)c4)ncnc32)[C@H](O)[C@@H]1O [Compound 46, N^6-(3-methylbenzyl)-NMCA]	–
431 ± 45 nM	1590 nM	CNC(=O)[C@H]1O[C@@H](n2cnc3c(NCc4ccc(N)cc4)ncnc32)[C@H](O)[C@@H]1O [Compound 50, N^6-(4-aminobenzyl)-NMCA]	–
> 10000 nM	> 10000 nM	CNC(=O)[C@H]1O[C@@H](n2cnc3c(NCc4cccc(S(=O)(=O)O)c4)ncnc32)[C@H](O)[C@@H]1O [Compound 52, N^6-(3-sulfobenzyl)-NMCA triethylammonium salt]	–
51 ± 7 nM	32 ± 4 nM	CCNC(=O)[C@H]1O[C@@H](n2cnc3c(NCc4cccc(F)c4)ncnc32)[C@H](O)[C@@H]1O [Compound 57, N^6-(3-fluorobenzyl)adenosine-5'-N-ethyluronamide]	–
22 ± 3 nM	19 ± 0.3 nM	CCNC(=O)[C@H]1O[C@@H](n2cnc3c(NCc4cccc(Cl)c4)ncnc32)[C@H](O)[C@@H]1O [Compound 58, N^6-(3-chlorobenzyl)adenosine-5'-N-ethyluronamide]	–
7.7 ± 0.9 nM	7.2 ± 0.6 nM	CCNC(=O)[C@H]1O[C@@H](n2cnc3c(NCc4cccc(I)c4)ncnc32)[C@H](O)[C@@H]1O [Compound 60, N^6-(3-iodobenzyl)-NECA]	–
78 ± 10 nM	35 ± 7 nM	CCNC(=O)[C@H]1O[C@@H](n2cnc3c(NCc4cccc([N+](=O)[O-])c4)ncnc32)[C@H](O)[C@@H]1O [Compound 62, N^6-(3-nitrobenzyl)-NECA]	–
36.5 ± 1.2 nM	17.7 ± 1.8 nM	CCNC(=O)[C@H]1O[C@@H](n2cnc3c(NCc4cccc(C)c4)ncnc32)[C@H](O)[C@@H]1O [Compound 64, N^6-(3-methylbenzyl)-NECA]	–
69 ± 8 nM	38 ± 6 nM	CCNC(=O)[C@H]1O[C@@H](n2cnc3c(NCc4cccc(OC)c4)ncnc32)[C@H](O)[C@@H]1O [Compound 66, N^6-(3-methoxybenzyl)-NECA]	–
209 ± 30 nM	609 ± 34 nM	CCNC(=O)[C@H]1O[C@@H](n2cnc3c(NCc4ccc(OC)cc4)ncnc32)[C@H](O)[C@@H]1O [Compound 67, N^6-(4-methoxybenzyl)adenosine-5'-N-ethyluronamide]	–

The next lines start with the molecule.

SMILES	Ki [1, 3]	Ki [2, 4]	further results
Nc1ccc(CCNc2ncnc3c2ncn3[C@@H]2O[C@H](CO)[C@@H](O)[C@H]2O)cc1 [APNEA, N^6-2-(4-aminophenyl)ethyladenosine, reference compound]	–	–	A1 selectivity [1]: 8 fold; Ki ([2]; Table 2, [3H]CGS 21680, rat striatal membranes, read-out: Ki (A2)): 172 ± 50 nM
NCCNC(=O)[C@H]1O[C@@H](n2cnc3c(N)ncnc32)[C@H](O)[C@@H]1O [Compound 25, 5'-N-aminoethylaminocarboxamidoadenosine]	–	–	inhibition at 100 µM [1]: 0%; inhibition at 100 µM [2]: 12.5%
CC(C)(C)OC(=O)NCCNC(=O)[C@H]1O[C@@H](n2cnc3c(N)ncnc32)[C@H](O)[C@@H]1O [Compound 26, 5'-N-boc-aminoethylaminocarboxamidoadenosine]	–	–	inhibition at 100 µM ([1]; at 100 μM): 0%; inhibition at 100 µM [2]: 0%
CN(Cc1ccccc1)c1ncnc2c1ncn2[C@@H]1O[C@H](CO)[C@@H](O)[C@H]1O [Compound 30, N^6 -benzyl-N^6 -methyladenosine, reference compound]	7600 nM	40100 nM	–
Nc1ncnc2c1nc(Br)n2[C@@H]1O[C@H](CO)[C@@H](O)[C@H]1O [Compound 31, 8-bromoadenosine, reference compound]	–	22700 nM	inhibition at 100 µM [1]: 41.5 ± 3.2%
Nc1c2ncn([C@@H]3O[C@H](CO)[C@@H](O)[C@H]3O)c2nc[n+]1[O-] [Compound 34, adenosine-N^1 -oxide, reference compound]	–	328 ± 60 nM	Ki [1]: 246 ± 31 nM
[O-][n+]1cnc2c(ncn2[C@@H]2O[C@H](CO)[C@@H](O)[C@H]2O)c1NCc1ccccc1 [Compound 36, N^6 -benzyladenosine-N^1 -oxide]	864 ± 88 nM	8530 nM	–
CCNC(=O)[C@H]1O[C@@H](n2cnc3c(=N)n(Cc4ccc([N+](=O)[O-])cc4)cnc32)[C@H](O)[C@@H]1O [Compound 37]	341 ± 52 nM	190 ± 52 nM	–
CCNC(=O)[C@H]1O[C@@H](n2cnc3c(=N)n(Cc4ccccc4[N+](=O)[O-])cnc32)[C@H](O)[C@@H]1O [Compound 38, N'-(2-nitrobenzyl)NECA]	196 ± 52 nM	83.5 ± 9.5 nM	–
CNC(=O)[C@H]1O[C@@H](n2cnc3c(NCc4ccc(S(=O)(=O)O)cc4)ncnc32)[C@H](O)[C@@H]1O [Compound 53, N^6-(4-sulfobenzyl)adenosine-5'-N-methyluronamide triethylammonium salt]	–	–	inhibition at 100 µM ([1]; at 100 μM): 0%; inhibition at 100 µM [2]: 0%
CCNC(=O)[C@H]1O[C@@H](n2cnc3c(N[C@H](C)c4ccccc4)ncnc32)[C@H](O)[C@@H]1O [Compound 55, N^6 -(R-phenylethyl)-NECA]	3.2 ± 0.1 nM	259 ± 15 nM	–
CCNC(=O)[C@H]1O[C@@H](n2cnc3c(NCc4ccccc4[N+](=O)[O-])ncnc32)[C@H](O)[C@@H]1O [Compound 61, N^6-(2-nitrobenzyl)adenosine-5'-N-ethyluronamide]	31 ± 4 nM	24 ± 3 nM	–
CCNC(=O)[C@H]1O[C@@H](n2cnc3c(NCc4ccccc4OC)ncnc32)[C@H](O)[C@@H]1O [Compound 65, N^6-(2-methoxybenzyl)-NECA]	52 ± 5 nM	21 ± 3 nM	–
Nc1ncnc2c1ncn2[C@H]1C[C@H](O)[C@@H](CO)O1 [Compound 70, 2'-deoxyadenosine, reference compound]	–	–	inhibition at 100 µM ([1]; at 100 μM): 30.9 ± 8%; inhibition at 100 µM ([2]; at 100 μM): 38.9 ± 2.9%
CO[C@@H]1[C@H](O)[C@@H](CO)O[C@H]1n1cnc2c(N)ncnc21 [Compound 71, 2'-O-methyladenosine, reference compound]	–	–	inhibition at 100 µM ([1]; at 100 μM): 29.4 ± 7.5%; inhibition at 100 µM ([2]; at 100 μM): 49 ± 5%
Nc1ncnc2c1ncn2[C@@H]1O[C@H](CO)C[C@H]1O [Compound 72, 3'-deoxyadenosine, reference compound]	–	–	inhibition at 100 µM ([1]; at 100 μM): 5.8 ± 2.8%; inhibition at 100 µM ([2]; at 100 μM): 26.3 ± 3.4%
C[C@H]1O[C@@H](n2cnc3c(N)ncnc32)[C@H](O)[C@@H]1O [Compound 73, 5'-deoxyadenosine, reference compound]	269 ± 135 nM	596 ± 54 nM	–
NC[C@H]1O[C@@H](n2cnc3c(N)ncnc32)[C@H](O)[C@@H]1O [Compound 74, 5'-deoxy-5'-aminoadenosine, reference compound]	42700 nM	–	–
CCCCn1c(=O)c2c(ncn2[C@@H]2O[C@H](C(=O)NC)[C@@H](O)[C@H]2O)n(CCCC)c1=O [Compound 124, N-methyl 1,3-di-n-butylxanthine-7-β-D-ribofuronamide]	–	–	inhibition at 100 µM [1]: 30%
